Data from US8093288B2, “Genipin derivatives and uses thereof” (Beth Israel Deaconess Medical Center, priority 2003, dated 2012).

Columns and labels:
Format in all cases: cell-based
isolated thymocytes = test: Proton leak in isolated thymocytes
Description: (§1) It has been shown that addition of high levels of superoxide to isolated mitochondrial stimulates proton leak if UCP1, UCP2 or UCP3 (collectively “UCPs”) are present.

[1] = test system: thymocytes that are deficient in UCP2; test: Proton leak in thymocytes deficient in UCP2
Description: as §1

isolated islets = test: ATP levels and insulin secretion in isolated islets
Description: as §1

UCP2 deficient islets = test: ATP levels and insulin secretion in UCP2 deficient islets
Description: as §1

[2] = test system: pancreatic islets from wildtype mice; test: Insulin secretion in isolated pancreatic islets from wildtype mice; details: 5.5 mM glucose; 5 μM D1; 37° C. for 60 min; WT islets; FIG. 11C
Description: As used or herein, pancreatic islets from wildtype and UCP2 knockout mice were isolated according to a method used for rats (Cawthorn and Chan, Mol. Cell. Endocrinol. 1991, 75:197-204, the entire teachings of which are incorporated herein by reference), except that the total exposure to type XI collagenase (Worthington Biochemical Co., NJ) was 30 min. and the Ficoll gradient was altered to layers of 25%, 23%, 21%, and 11%. Islets were harvested from the 11%-21% interface.
Islets were cultured in RPMI medium containing 11.0 mM glucose and supplemented with 1% penicillin-streptomycin. 7.5% fetal bovine serum (all from Gibco/BRL, Burlington, ON), and 10 mM Hepes (Sigma). After culturing for 20-24 hr, the islets were transferred to microcentrifuge tubes, pelleted (800 g for 5 min), and the medium aspirated and replaced with 1.0 mL DME medium containing 1% gelatin and 5.5 mM glucose with no genipin (control), 50 nM genipin, 0.5 μM genipin, and 5 μM genipin. For insulin secretion studies, the three islets were incubated per tube. After incubation at 37° C. for 60 min., the islets were centrifuged. The supernatant was collected and stored at −80° C., and then later assayed for insulin using Rat Insulin ELISA Kit (Cat. No. INSKR020, Crystal Chem., Inc., Chicago, Ill.).
FIGS. 11B and 11C show their effects on insulin secretion. Pancreatic islets were isolated from WT or UCP2 knockout (KO) mice. […]

## O=C(O)c1ccc(/C2=C3\C=CC(=N3)/C(c3ccc(C(=O)O)cc3)=c3/cc/c4[n]3[Mn]([Cl])[n]3c2ccc3/C(c2ccc(C(=O)O)cc2)=C2/C=CC(=N2)\C=4c2ccc(C(=O)O)cc2)cc1 [MnTBAP]
Isolated thymocytes
  proton leak: decreases proton leak
[1]
  proton leak: not present
Isolated islets
  ATP levels: increased ATP levels
  insulin secretion: increased insulin secretion
UCP2 deficient islets
  ATP levels and insulin secretion: absent

## COC(=O)C1=CO[C@@H]2OC[C@@]3(O)[C@@H]2[C@@H]1C[C@H]3Cl [compound 55]
[2]
  insulin secretion: increases insulin secretion in WT islets
